Reference: patent publication US20260250322A1, “NEW PEPTIDES AS SELECTIVE IL-23 RECEPTOR INHIBITORS” (SANOFI, priority 2023, published 2026)
Bridge positions count the residues as written; N and C are the ends. Square brackets hold non-standard residues; d marks the D form. Peptide text beside a SMILES is read from it. Trp(1-Me) = Cn1cc(C[C@H](N)C(=O)O)c2ccccc21; 1Nal = N[C@@H](Cc1cccc2ccccc12)C(=O)O; 2Nal = N[C@@H](Cc1ccc2ccccc2c1)C(=O)O; dOrn = NCCC[C@@H](N)C(=O)O; Orn = NCCC[C@H](N)C(=O)O; Thp = NC1(C(=O)O)CCOCC1; Aib = CC(C)(N)C(=O)O; Ahx = NCCCCCC(=O)O; Ava = NCCCCC(=O)O

Target: T1, human IL-23R (Homo sapiens, UniProt Q5VWK5)
T1 sequence (Q5VWK5 24-355 limits assumed): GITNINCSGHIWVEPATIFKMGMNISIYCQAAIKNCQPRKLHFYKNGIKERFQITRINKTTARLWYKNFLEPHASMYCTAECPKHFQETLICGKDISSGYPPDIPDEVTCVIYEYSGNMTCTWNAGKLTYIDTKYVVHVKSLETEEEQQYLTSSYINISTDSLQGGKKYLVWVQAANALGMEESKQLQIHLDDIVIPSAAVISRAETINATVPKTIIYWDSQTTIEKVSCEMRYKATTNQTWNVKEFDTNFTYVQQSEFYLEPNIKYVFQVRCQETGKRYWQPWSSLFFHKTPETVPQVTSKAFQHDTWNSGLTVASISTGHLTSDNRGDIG
Assay: Human ELISA IL-23/IL-23R binding inhibition
Conditions: human IL-23 coated, recombinant human IL-23R-Fc chimera
Experimental: Antagonism of peptide compounds for human interleukin-23 receptor inhibitors, was determined by an ELISA assay.
A 384-well plate was coated with 50 μl/well of human IL-23 at a final concentration of 1 μg/ml and incubated overnight at 4° C. The wells were washed 3 times with 80 μl wash buffer and blocked with 80 μl blocking buffer for 60 minutes at room temperature and washed again. 20 μl of serially diluted test peptides was added to each well and subsequently 20 μl of recombinant human IL-23R-Fc chimera at final concentration of 0.1 μg/ml. The plate was incubated for 60 minutes at room temperature. After the wells were washed, bound IL-23R-Fc was detected with goat anti-hu-lgG1-HRP antibody. Signals were visualized with QuantaBlu Fluorogenic Peroxidase Substrate.

Compound | IC50 [nM]
COc1ccc(C[C@@H]2NC(=O)[C@H](CCCNC(=N)N)NC(=O)[C@H](CCC(N)=O)NC(=O)[C@H](Cc3cn(C)c4ccccc34)NC(=O)[C@H]([C@@H](C)O)NC(=O)[C@H](CC(N)=O)NC(=O)[C@@H](NC(C)=O)CC(=O)NCCC[C@@H](C(=O)N[C@@H](CC(N)=O)C(=O)N[C@@H](CC(N)=O)C(N)=O)NC(=O)[C@H](CC(C)C)NC(=O)[C@H](Cc3ccc4ccccc4c3)NC2=O)cc1 [compound 37] (Ac-DNT[Trp(1-Me)]QRY(Me)[2Nal]L[Orn]NN-NH2; lactam 1-10) | 3.57
COc1ccc(C[C@@H]2NC(=O)[C@H](C)NC(=O)[C@H](CCC(N)=O)NC(=O)[C@H](Cc3c[nH]c4ccccc34)NC(=O)[C@H]([C@@H](C)O)NC(=O)[C@H](CC(N)=O)NC(=O)CCCCNC(=O)C[C@@H](C(=O)N[C@@H](CC(N)=O)C(=O)N[C@@H](CC(N)=O)C(N)=O)NC(=O)C(C)(C)NC(=O)[C@H](Cc3ccc4ccccc4c3)NC2=O)cc1 [compound 44] ([Ava]NTWQAY(Me)[2Nal][Aib]DNN-NH2; lactam N-10) | 4.66
COc1ccc(C[C@@H]2NC(=O)[C@H](CCCNC(=N)N)NC(=O)[C@H](CCC(N)=O)NC(=O)[C@H](Cc3cn(C)c4ccccc34)NC(=O)[C@H]([C@@H](C)O)NC(=O)[C@H](CC(N)=O)NC(=O)[C@@H](NC(C)=O)CC(=O)NCCC[C@@H](C(=O)N[C@@H](CC(N)=O)C(=O)N[C@@H](CC(N)=O)C(N)=O)NC(=O)C(C)(C)NC(=O)[C@H](Cc3c[nH]c4ccccc34)NC2=O)cc1 [compound 36] (Ac-DNT[Trp(1-Me)]QRY(Me)W[Aib][Orn]NN-NH2; lactam 1-10) | 19.5
COc1ccc(C[C@@H]2NC(=O)[C@H](CCCNC(=N)N)NC(=O)[C@H](CCC(N)=O)NC(=O)[C@H](Cc3c[nH]c4ccccc34)NC(=O)[C@H](Cc3c[nH]cn3)NC(=O)[C@H](CC(N)=O)NC(=O)[C@@H](NC(C)=O)CCCCNC(=O)C[C@@H](C(=O)N[C@@H](CC(N)=O)C(=O)N[C@@H](CC(N)=O)C(N)=O)NC(=O)C3(CCOCC3)NC(=O)[C@H](Cc3ccc4ccccc4c3)NC2=O)cc1 [compound 42] (Ac-KNHWQRY(Me)[2Nal][Thp]DNN-NH2; lactam 1-10) | 18.1
COc1ccc(C[C@@H]2NC(=O)[C@H](C)NC(=O)[C@H](CCC(N)=O)NC(=O)[C@H](Cc3c[nH]c4ccccc34)NC(=O)[C@H]([C@@H](C)O)NC(=O)[C@H](CC(N)=O)NC(=O)CCCCCNC(=O)C[C@@H](C(=O)N[C@@H](CC(N)=O)C(=O)N[C@@H](CC(N)=O)C(N)=O)NC(=O)C(C)(C)NC(=O)[C@H](Cc3ccc4ccccc4c3)NC2=O)cc1 [compound 43] ([Ahx]NTWQAY(Me)[2Nal][Aib]DNN-NH2; lactam N-10) | 1.44
COc1ccc(C[C@@H]2NC(=O)[C@H](C)NC(=O)[C@H](CCC(N)=O)NC(=O)[C@H](Cc3c[nH]c4ccccc34)NC(=O)[C@H](CCCNC(=N)N)NC(=O)[C@H](CC(N)=O)NC(=O)[C@H](NC(C)=O)CCCCNC(=O)C[C@@H](C(=O)N[C@@H](CC(N)=O)C(=O)N[C@@H](CC(N)=O)C(N)=O)NC(=O)C(C)(C)NC(=O)[C@H](Cc3ccc4ccccc4c3)NC2=O)cc1 [compound 46] (Ac-[dK]NRWQAY(Me)[2Nal][Aib]DNN-NH2; lactam 1-10) | 1.38
COc1ccc(C[C@@H]2NC(=O)[C@H](C)NC(=O)[C@H](CCC(N)=O)NC(=O)[C@H](Cc3c[nH]c4ccccc34)NC(=O)[C@H]([C@@H](C)O)NC(=O)[C@H](CC(N)=O)NC(=O)[C@H](NC(C)=O)CCCCNC(=O)C[C@@H](C(=O)N[C@@H](C)C(=O)N[C@@H](CC(N)=O)C(N)=O)NC(=O)C(C)(C)NC(=O)[C@H](Cc3ccc4ccccc4c3)NC2=O)cc1 [compound 49] (Ac-[dK]NTWQAY(Me)[2Nal][Aib]DAN-NH2; lactam 1-10) | 3.13
COc1ccc(C[C@@H]2NC(=O)[C@H](CCCNC(=N)N)NC(=O)[C@H](CCC(N)=O)NC(=O)[C@H](Cc3cn(C)c4ccccc34)NC(=O)[C@H]([C@@H](C)O)NC(=O)[C@H](CC(N)=O)NC(=O)[C@@H](NC(C)=O)CCC(=O)NCCC[C@@H](C(=O)N[C@@H](CC(N)=O)C(=O)N[C@@H](CC(N)=O)C(N)=O)NC(=O)C(C)(C)NC(=O)[C@H](Cc3ccc4ccccc4c3)NC2=O)cc1 [compound 35] (Ac-ENT[Trp(1-Me)]QRY(Me)[2Nal][Aib][Orn]NN-NH2; lactam 1-10) | 4.55
COc1ccc(C[C@@H]2NC(=O)[C@H](C)NC(=O)[C@H](CCC(N)=O)NC(=O)[C@H](Cc3c[nH]c4ccccc34)NC(=O)[C@H]([C@@H](C)O)NC(=O)[C@H](CC(N)=O)NC(=O)[C@H](NC(C)=O)CCCCNC(=O)C[C@@H](C(=O)N[C@@H](C)C(=O)N[C@@H](C)C(N)=O)NC(=O)C(C)(C)NC(=O)[C@H](Cc3ccc4ccccc4c3)NC2=O)cc1 [compound 50] (Ac-[dK]NTWQAY(Me)[2Nal][Aib]DAA-NH2; lactam 1-10) | 8.29
COc1ccc(C[C@@H]2NC(=O)[C@H](CCCNC(=N)N)NC(=O)[C@H](CCC(N)=O)NC(=O)[C@H](Cc3c[nH]c4ccccc34)NC(=O)[C@H]([C@@H](C)O)NC(=O)[C@H](CC(N)=O)NC(=O)[C@H](NC(C)=O)CCCNC(=O)CC[C@@H](C(=O)N[C@@H](CC(N)=O)C(=O)N[C@@H](CC(N)=O)C(N)=O)NC(=O)C(C)(C)NC(=O)[C@H](Cc3cccc4ccccc34)NC2=O)cc1 [compound 22] (Ac-[dOrn]NTWQRY(Me)[1Nal][Aib]ENN-NH2; lactam 1-10) | 48.4
COc1ccc(C[C@@H]2NC(=O)[C@H](CCCNC(=N)N)NC(=O)[C@H](CCC(N)=O)NC(=O)[C@H](Cc3cn(C)c4ccccc34)NC(=O)[C@H]([C@@H](C)O)NC(=O)[C@H](CC(N)=O)NC(=O)[C@@H](NC(C)=O)CC(=O)NCCC[C@@H](C(=O)N[C@@H](CC(N)=O)C(=O)N[C@@H](CC(N)=O)C(N)=O)NC(=O)C(C)(C)NC(=O)[C@H](Cc3ccc4ccccc4c3)NC2=O)cc1 [compound 34] (Ac-DNT[Trp(1-Me)]QRY(Me)[2Nal][Aib][Orn]NN-NH2; lactam 1-10) | 2.16
COc1ccc(C[C@@H]2NC(=O)[C@H](C)NC(=O)[C@H](CCC(N)=O)NC(=O)[C@H](Cc3c[nH]c4ccccc34)NC(=O)[C@H]([C@@H](C)O)NC(=O)[C@H](CCCNC(=N)N)NC(=O)[C@H](NC(C)=O)CCCCNC(=O)C[C@@H](C(=O)N[C@@H](CC(N)=O)C(=O)N[C@@H](CC(N)=O)C(N)=O)NC(=O)C(C)(C)NC(=O)[C@H](Cc3ccc4ccccc4c3)NC2=O)cc1 [compound 45] (Ac-[dK]RTWQAY(Me)[2Nal][Aib]DNN-NH2; lactam 1-10) | 0.96
COc1ccc(C[C@@H]2NC(=O)[C@H](C)NC(=O)[C@H](CCC(N)=O)NC(=O)[C@H](Cc3c[nH]c4ccccc34)NC(=O)[C@H]([C@@H](C)O)NC(=O)[C@H](CC(N)=O)NC(=O)[C@H](NC(C)=O)CCCCNC(=O)C[C@@H](C(=O)N[C@@H](CC(N)=O)C(=O)N[C@@H](C)C(N)=O)NC(=O)C(C)(C)NC(=O)[C@H](Cc3ccc4ccccc4c3)NC2=O)cc1 [compound 48] (Ac-[dK]NTWQAY(Me)[2Nal][Aib]DNA-NH2; lactam 1-10) | 2.06
CC(=O)N[C@H]1CC(=O)NCCC[C@@H](C(=O)N[C@@H](CC(N)=O)C(=O)N[C@@H](CC(N)=O)C(N)=O)NC(=O)C(C)(C)NC(=O)[C@H](Cc2ccc3ccccc3c2)NC(=O)[C@H](Cc2ccc(O)cc2)NC(=O)[C@H](CCCNC(=N)N)NC(=O)[C@H](CCC(N)=O)NC(=O)[C@H](Cc2cn(C)c3ccccc23)NC(=O)[C@H]([C@@H](C)O)NC(=O)[C@H](CC(N)=O)NC1=O [compound 33] (Ac-DNT[Trp(1-Me)]QRY[2Nal][Aib][Orn]NN-NH2; lactam 1-10) | 3.36
